# Assay results published in patent EP0565593B1, “REDUCING PESTICIDAL INTERACTIONS IN CROPS” (priority 1990, dated 1992).
# Values joined by “and” are separate entries in the source; they are usually repeats but may differ in a detail not shown here. Equal values may be shown once. Read-outs that look alike come from different tables or passages of the source.
# Legend:
# Giant foxtail (GIFT) [1] = assay: Greenhouse test Procedure VII (same examples); assay type: in vivo
# Text: This procedure describes interaction among herbicide, biocide and antidote when the biocide and the antidote is applied to a soil furrow containing crop seed before emergence of the crop and the herbicide is applied after emergence of the crop and weeds. The soil and planting depth was described in Procedure IV. The containers for comparison, the biocide and antidote applications to soil furrows were described in Procedure VI. In this procedure, the seed beds of the first, second, third and fourth containers are covered by soil layers not treated with herbicide. The containers were then placed on a bench in a greenhouse and subirrigated as required for the duration of the test. The herbicide, dispersed or dissolved in water containing 0.25% v/v nonionic surfactant (X-77) was applied by a track sprayer (187 L/ha) to the emerged plants of the second, third and fourth containers about five days after planting. All treatments were run in duplicate. Plant response was observed according to Procedure IV. Variations in this procedure will be noted in the examples.
# In these tests (according to Procedure VII) the safeners in solution with acetone were applied in furrow to the soil, followed by COUNTER 15G granules at 227 g/305 m (8 oz./1000'). Applications were made in alternate rows in two separate 13.7 cm x 27.7 cm pans containing Dupo silt loam. Pans were seeded 1.3 cm deep, placed on benches in a greenhouse and subirrigated. BEACON was formulated in water with 0.25% v/v X-77 surfactant and applied by track sprayer at a rate of 187 L/Ha (20 gal/A). Weed species in this test were giant foxtail, shattercane and velvetleaf. The herbicide was applied five (5) days after PPI initiation and observation of test result (shown in Table 47) made eight (8) days later.
# In Table 47 COUNTER 15G is abbreviated as "C" and the antidotes as "A" in the column headings which indicate the "C + A" ratios used in the tests. Control and COUNTER treatments are average of four (4) replications and COUNTER + Antidote treatments, average of 2 reps.
# wheat (WHEA) = assay: Multi-crop greenhouse test, soil-applied (Examples 65, 66; Tables 64, 65); assay type: in vivo
# Procedure, shortened: (§1)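 Dupo silt loam pans, seeds 1.3 cm deep; safener (acetone) + COUNTER 15G granules mixed into cover soil; subirrigated. MON-12000 run: herbicide POE day 6, light overhead irrigation days 4–7, injury scored 10 d later. XRD-498 run: all three components applied together to covers. Mean of 2 reps.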
# Corn = assay: as above; assay type: in vivo
# Procedure, shortened: as §1
# soybean (SOBE) = assay: as above; assay type: in vivo
# Procedure, shortened: as §1
# Giant foxtail (GIFT) [2] = assay: as above; assay type: in vivo
# Procedure, shortened: as §1
# Velvetleaf (VELE) = assay type: in vivo, Abutilon theophrasti
# [3] = Antidote + Biocide No. 1 in furrow, Herbicide No. 1 0.14 Kg/Ha POE, 8 days after POE
# [4] = Antidote + Biocide No. 1 in furrow, Herbicide No. 4 0.17 Kg/Ha POE, 8 days after POE
# [5] = Antidote + Biocide No. 1 in furrow, Herbicide No. 5 0.07 Kg/Ha POE, 8 days after POE
# [6] = Antidote + Biocide No. 1 in furrow, Herbicide No. 6 0.01 Kg/Ha POE
# [7] = Antidote + Biocide No. 1 in furrow, Herbicide No. 7 0.56 Kg/Ha POE, 8 days after POE
# [8] = Antidote + Biocide No. 1 in furrow, Herbicide No. 9 0.009 Kg/Ha POE
# [9] = Antidote + Biocide No. 1 in furrow, Herbicide No. 10 0.002 Kg/Ha POE, 8 days after POE
# [10] = Antidote + Biocide No. 1 in furrow, Herbicide No. 15 0.0044 Kg/Ha POE, 8 days after POE
# [11] = Antidote + Biocide No. 1 in furrow, Herbicide No. 16 0.01 Kg/Ha POE
# [12] = Antidote + Biocide No. 1 in furrow, Herbicide No. 18 0.0044 Kg/Ha POE
# [13] = Antidote + Biocide No. 1 in furrow, Herbicide No. 19 0.28 Kg/Ha POE
# [14] = Antidote + Biocide No. 1 in furrow, Herbicide No. 21 0.14 Kg/Ha POE
# [15] = Antidote + Biocide No. 1 in furrow, Herbicide No. 23 0.0006 Kg/Ha POE
# [16] = Table 64, Herb. No. 1 0.018 Kg/Ha + Biocide No. 1 8.96 Kg/Ha + Antidote 4.48 Kg/Ha
# [17] = Table 64, Herb. No. 1 0.07 Kg/Ha + Biocide No. 1 8.96 Kg/Ha + Antidote 4.48 Kg/Ha
# [18] = Table 64, Herb. No. 1 0.28 Kg/Ha + Biocide No. 1 8.96 Kg/Ha + Antidote 4.48 Kg/Ha
# [19] = Table 65, Herb. No. 1 0.018 Kg/Ha + Biocide No. 1 8.96 Kg/Ha + Antidote 4.48 Kg/Ha
# [20] = Table 65, Herb. No. 1 0.07 Kg/Ha + Biocide No. 1 8.96 Kg/Ha + Antidote 4.48 Kg/Ha
# [21] = Table 65, Herb. No. 1 0.28 Kg/Ha + Biocide No. 1 8.96 Kg/Ha + Antidote 4.48 Kg/Ha
# [22] = Antidote 4.48 + Biocide No. 1 8.96 Kg/Ha PPI, Herb. No. 8 0.07, 5 DAP, before herbicide application
# [23] = Antidote 4.48 + Biocide No. 1 8.96 Kg/Ha PPI, Herb. No. 8 0.07 POE, 13 DAP
# [24] = Antidote 4.48 + Biocide No. 1 8.96 Kg/Ha PPI, Herbicide No. 7 0.28 POE, 13 days after planting
# [25] = Herb. […], 5 DAP, before herbicide application
# [26] = Table 14: Herbicide No. 7 (ACCENT) 0.84 Kg/Ha POE + Biocide No. 2 8.96 Kg/Ha PPI + antidote 4.48 Kg/Ha PPI, 13 days after planting, 8 days after herbicide
# [27] = […], 13 days after planting, 8 days after herbicide
# [28] = […], observed 10 days after herbicide application
smiles,measurement,setting,value
CC1(C)OC(c2ccco2)CN1C(=O)C(Cl)Cl (centres unmarked) [compound 1],% Inhibition GIFT,Giant foxtail (GIFT) [1]; [3],0%
same,% Inhibition GIFT,Giant foxtail (GIFT) [1]; [4],0%
same,% Inhibition GIFT,Giant foxtail (GIFT) [1]; [5],0%
same,% Inhibition GIFT,Giant foxtail (GIFT) [1]; [6],60%
same,% Inhibition GIFT,Giant foxtail (GIFT) [1]; [7],85%
same,% Inhibition GIFT,Giant foxtail (GIFT) [1]; [8],30%
same,% Inhibition GIFT,Giant foxtail (GIFT) [1]; [9],0%
same,% Inhibition GIFT,Giant foxtail (GIFT) [1]; [10],20%
same,% Inhibition GIFT,Giant foxtail (GIFT) [1]; [11],35%
same,% Inhibition GIFT,Giant foxtail (GIFT) [1]; [12],65%
same,% Inhibition GIFT,Giant foxtail (GIFT) [1]; [13],35%
same,% Inhibition GIFT,Giant foxtail (GIFT) [1]; [14],35%
same,% Inhibition GIFT,Giant foxtail (GIFT) [1]; [15],20%
same,% Inhibition GIFT,"Giant foxtail (GIFT) [1]; Herbicide No. 1 0.14 Kg/Ha POE + Biocide No. 1 in furrow, no antidote, 8 days after POE",0%
same,% Inhibition GIFT,"Giant foxtail (GIFT) [1]; Herbicide No. 1 0.14 Kg/Ha POE alone, 8 days after POE",0%
same,% Inhibition WHEA,wheat (WHEA); [16],0%
same,% Inhibition WHEA,wheat (WHEA); [17],0%
same,% Inhibition WHEA,wheat (WHEA); [18],0%
same,% Inhibition WHEA,wheat (WHEA); [19],10%
same,% Inhibition WHEA,wheat (WHEA); [20],25%
same,% Inhibition WHEA,wheat (WHEA); [21],70%
same,% Inhibition Corn,Corn; [16],5%
same,% Inhibition Corn,Corn; [17],15%
same,% Inhibition Corn,Corn; [18],10%
same,% Inhibition Corn,Corn; [19],0%
same,% Inhibition Corn,Corn; [20],5%
same,% Inhibition Corn,Corn; [21],20%
same,% Inhibition SOBE,soybean (SOBE); [16],35%
same,% Inhibition SOBE,soybean (SOBE); [17],75%
same,% Inhibition SOBE,soybean (SOBE); [18],70%
same,% Inhibition SOBE,soybean (SOBE); [19],0%
same,% Inhibition SOBE,soybean (SOBE); [20],0%
same,% Inhibition SOBE,soybean (SOBE); [21],5%
same,% Inhibition GIFT,Giant foxtail (GIFT) [2]; [16],50%
same,% Inhibition GIFT,Giant foxtail (GIFT) [2]; [17],70%
same,% Inhibition GIFT,Giant foxtail (GIFT) [2]; [18],85%
same,% Inhibition GIFT,Giant foxtail (GIFT) [2]; [19],40%
same,% Inhibition GIFT,Giant foxtail (GIFT) [2]; [20],80%
same,% Inhibition GIFT,Giant foxtail (GIFT) [2]; [21],95%
same,% Inhibition 5 DAP VELE,Velvetleaf (VELE); [22],0%
same,% Inhibition 13 DAP VELE,Velvetleaf (VELE); [23],90%
same,% Inhibition VELE,Velvetleaf (VELE); [24],70%
same,% Inhibition 5 DAP VELE,Velvetleaf (VELE); [25],0%
same,% Inhibition VELE,Velvetleaf (VELE); [26],65%
same,% Inhibition VELE,Velvetleaf (VELE); [27],70%
same,% Inhibition VELE,"Velvetleaf (VELE); […], observed 9 days later (Table 29)",90%
same,% Inhibition VELE,"Velvetleaf (VELE); […], observed 9 days later (Table 30)",75%
same,% Inhibition VELE,Velvetleaf (VELE); [28],80%
same,% Inhibition 5 DAP VELE,Velvetleaf (VELE); in vivo,10%
same,% Inhibition 13 DAP VELE,Velvetleaf (VELE); in vivo,90%
same,% Inhibition VELE,Velvetleaf (VELE); in vivo,75% and 65% and 80% and 70% and 85%
COC(=O)COC(c1ccccc1)c1ccccc1 [compound 12],% Inhibition GIFT,Giant foxtail (GIFT) [1]; [3],0%
same,% Inhibition GIFT,Giant foxtail (GIFT) [1]; [4],0%
same,% Inhibition GIFT,Giant foxtail (GIFT) [1]; [5],0%
same,% Inhibition GIFT,Giant foxtail (GIFT) [1]; [6],50%
same,% Inhibition GIFT,Giant foxtail (GIFT) [1]; [7],85%
same,% Inhibition GIFT,Giant foxtail (GIFT) [1]; [8],10%
same,% Inhibition GIFT,Giant foxtail (GIFT) [1]; [9],0%
same,% Inhibition GIFT,Giant foxtail (GIFT) [1]; [10],0%
same,% Inhibition GIFT,Giant foxtail (GIFT) [1]; [11],20%
same,% Inhibition GIFT,Giant foxtail (GIFT) [1]; [12],60%
same,% Inhibition GIFT,Giant foxtail (GIFT) [1]; [13],35%
same,% Inhibition GIFT,Giant foxtail (GIFT) [1]; [14],25%
same,% Inhibition GIFT,Giant foxtail (GIFT) [1]; [15],25%
same,% Inhibition WHEA,wheat (WHEA); [16],0%
same,% Inhibition WHEA,wheat (WHEA); [17],0%
same,% Inhibition WHEA,wheat (WHEA); [18],0%
same,% Inhibition WHEA,wheat (WHEA); [19],0%
same,% Inhibition WHEA,wheat (WHEA); [20],0%
same,% Inhibition WHEA,wheat (WHEA); [21],20%
same,% Inhibition Corn,Corn; [16],0%
same,% Inhibition Corn,Corn; [17],10%
same,% Inhibition Corn,Corn; [18],10%
same,% Inhibition Corn,Corn; [19],0%
same,% Inhibition Corn,Corn; [20],0%
same,% Inhibition Corn,Corn; [21],20%
same,% Inhibition SOBE,soybean (SOBE); [16],5%
same,% Inhibition SOBE,soybean (SOBE); [17],70%
same,% Inhibition SOBE,soybean (SOBE); [18],80%
same,% Inhibition SOBE,soybean (SOBE); [19],0%
same,% Inhibition SOBE,soybean (SOBE); [20],0%
same,% Inhibition SOBE,soybean (SOBE); [21],15%
same,% Inhibition GIFT,Giant foxtail (GIFT) [2]; [16],30%
same,% Inhibition GIFT,Giant foxtail (GIFT) [2]; [17],70%
same,% Inhibition GIFT,Giant foxtail (GIFT) [2]; [18],75%
same,% Inhibition GIFT,Giant foxtail (GIFT) [2]; [19],25%
same,% Inhibition GIFT,Giant foxtail (GIFT) [2]; [20],80%
same,% Inhibition GIFT,Giant foxtail (GIFT) [2]; [21],85%
same,% Inhibition 5 DAP VELE,Velvetleaf (VELE); [22],25%
same,% Inhibition 13 DAP VELE,Velvetleaf (VELE); [23],90%
same,% Inhibition VELE,Velvetleaf (VELE); [24],65%
same,% Inhibition 5 DAP VELE,Velvetleaf (VELE); [25],0%
same,% Inhibition 13 DAP VELE,"Velvetleaf (VELE); Herb. […], 13 DAP, after herbicide application",90%
same,% Inhibition VELE,Velvetleaf (VELE); [26],70%
same,% Inhibition VELE,Velvetleaf (VELE); [27],75%
same,% Inhibition VELE,"Velvetleaf (VELE); […], observed 8 days later (Table 32)",85%
same,% Inhibition VELE,"Velvetleaf (VELE); […], observed 8 days later (Table 33)",75%
same,% Inhibition VELE,Velvetleaf (VELE); [28],90%
same,% Inhibition 5 DAP VELE,Velvetleaf (VELE); in vivo,20%
same,% Inhibition 13 DAP VELE,Velvetleaf (VELE); in vivo,85%
same,% Inhibition VELE,Velvetleaf (VELE); in vivo,70% and 65% and 85% and 75% and 90% and 80%
